Series [1] in a line: in vivo. On the set-up: species or system Crl:CD1(ICR) mice. The settings on record: mouse, sc.
A short description of series [2]: in vivo. On the set-up: species or system sprague dawley rats. The settings on record: rat, sc; for AUC(0-t) / CL/F / Cmax / Tmax / half-life: female, Sprague Dawley.
The subject of the next series is gubra DIO rats. The settings on record: gubra choice DIO model; cited from earlier work.
Where [3] appears, read: both, Crl:CD1(ICR) (CD-1), 625 nmol/kg.

For orientation: AUC(0-inf) means the area under the concentration-time curve extrapolated to infinity. Higher therefore signals more exposure. The term CL/F denotes the apparent clearance, not corrected for the fraction that reaches the circulation. The term Cmax denotes the peak of the concentration-time curve. Usually Tmax stands for the time from dosing to the highest level. By half-life is commonly meant how long it takes for the measured level to halve. The low end stands for fast loss, the high end for slow loss. The term AUC(0-t) denotes exposure summed from dosing to a finite time, without extrapolation to infinity. Lower therefore signals less exposure. On to `CC[C@H](C)[C@H](NC(=O)[C@H](CC(C)C)NC(=O)[C@H](Cc1c[nH]c2ccccc12)NC(=O)[C@H](CCC(N)=O)NC(=O)[C@@H](NC(=O)[C@H](Cc1ccccc1)NC(=O)[C@H](C)NC(=O)[C@H](CCCCNC(=O)COCCOCCNC(=O)COCCOCCNC(=O)CC[C@H](NC(=O)CCCCCCCCCCCCCCCCCCC(=O)O)C(=O)O)NC(=O)[C@H](CCC(N)=O)NC(=O)[C@H](C)NC(=O)[C@@H](NC(=O)[C@H](CCCCN)NC(=O)[C@H](CC(=O)O)NC(=O)[C@H](CC(C)C)NC(=O)C(C)(C)NC(=O)[C@@H](NC(=O)[C@H](CO)NC(=O)[C@H](Cc1ccc(O)cc1)NC(=O)[C@H](CC(=O)O)NC(=O)[C@H](CO)NC(=O)[C@@H](NC(=O)[C@H](Cc1ccccc1)NC(=O)[C@@H](NC(=O)CNC(=O)[C@H](CCC(=O)O)NC(=O)C(C)(C)NC(=O)[C@@H](N)Cc1ccc(O)cc1)[C@@H](C)O)[C@@H](C)O)[C@@H](C)CC)[C@@H](C)CC)C(C)C)C(=O)N[C@@H](C)C(=O)NCC(=O)NCC(=O)N1CCC[C@H]1C(=O)N[C@@H](CO)C(=O)N[C@@H](CO)C(=O)NCC(=O)N[C@@H](C)C(=O)N1CCC[C@H]1C(=O)N1CCC[C@H]1C(=O)N1CCC[C@H]1C(=O)N[C@@H](CO)C(N)=O` [tirzepatide], for which, in “in vivo [1]” (setting [3]), the AUC(0-inf) stood at 71.7 µM·h, the CL/F was 0.145 mL/min/kg, the Cmax was found to be 2540 nM and the Tmax was determined as 12 h. In the series “in vivo [1]” (setting [3]), this compound had a half-life of 11.9 h. Moreover, in the series “in vivo [1]”, the “T1/2 (elimination half-life)” value is recorded as “approximately 12 hr”. In “in vivo [2]” (31 nmol/kg), the AUC(0-t) is 3.74 µM·h, the CL/F was 0.139 mL/min/kg, the concentration peaked (Cmax) at 127 nM and the Tmax came out at 12 h. Also, the half-life in the series “in vivo [2]” (31 nmol/kg) was 9.3 h. Also, in the series “in vivo [2]” (104 nmol/kg), the AUC(0-t) came to 10 µM·h, the CL/F is 0.172 mL/min/kg, the Cmax amounted to 310 nM and the Tmax was found to be 12 h. This compound had a half-life in “in vivo [2]” (104 nmol/kg) of 10.3 h. The same compound showed a T1/2 in the series “in vivo [2]” of 10.3 h.

In the case of “liraglutide (HAEGTFTSDVSSYLEGQAAKEFIAWLVRGRG; chains of the INN, looked up)”, in the series with gubra DIO rats, the “cumulative chow intake compared to controls” value is “approximately doubled” and the “decrease of cumulative gubra diet intake compared to controls” value was “approximately 60%”.
